Results: US10021881B2, “Vaporized administration of pesticides” (priority 2016, dated 2018)

Tests used:
Botrytis cinerea [1] = test: In vivo assay of vaporized pyrimethanil to inhibit Botrytis cinerea in grapes; details: for Gray Mold Severity (0-4): scale 0 no disease to 4 exceptionally high
From the text: An in vivo assay was used to evaluate the ability of vaporized pyrimethanil to control pathogenic infection of Table grapes by Botrytis cinerea.

Botrytis cinerea [2] = test: In vivo assay of vaporized pyrimethanil to inhibit Botrytis cinerea in strawberries; details: for Gray Mold Severity (0-4): scale 0 no disease to 4 exceptionally high
Protocol: Eight strawberries (per repetition, in triplicate) were placed in an industry standard clamshell with the stem facing down. […] Clamshells were then placed at the bottom of a 36-L acrylic desiccator chamber in triplicate.
An appropriate amount of pyrimethanil to achieve a final headspace concentration of 1 mg/L, 0.3 mg/L, 0.1 mg/L, or 0.03 mg/L was dissolved in acetone and 100 μL of the solution was pipetted into a small glass tube. This tube was then placed inside a preheated vaporization device (0.5″ OD by 6″ long thermostatically heated copper tube mounted to a 0.5 L/min low flow fan) set at 60° C. for 1 minute to allow the acetone to evaporate, leaving behind the solid crystals of pyrimethanil.
Pyrimethanil was then introduced into the cabinets of the chamber through the bulkhead port by using the vaporization device as described in Example 1 set at 180° C. The chambers were then incubated at 21° C. for three (3) days. After incubation, fruits were evaluated daily for an additional 3 days at 21° C. Fruits were evaluated in order to observe percentage of disease incidence (%) and severity of disease. Disease severity was rated on a scale ranging from 0 to 4, where “0” indicated no disease severity, “1” indicated minimal disease severity, “2” indicated medium disease severity, “3” indicated high disease severity, and “4” indicated exceptionally high disease severity.

[3] = 0.03 mg/L, Day 1 (after 3 days at 21° C.)
[4] = 0.03 mg/L, Day 2 (after 3 days at 21° C.)
[5] = 0.03 mg/L, Day 3 (after 3 days at 21° C.)
[6] = 0.1 mg/L, Day 0 (after 3 days at 21° C.)
[7] = 0.1 mg/L, Day 1 (after 3 days at 21° C.)
[8] = 0.1 mg/L, Day 2 (after 3 days at 21° C.)
[9] = 0.1 mg/L, Day 3 (after 3 days at 21° C.)
[10] = 0.3 mg/L, Day 0 (after 3 days at 21° C.)
[11] = 0.3 mg/L, Day 1 (after 3 days at 21° C.)
[12] = 0.3 mg/L, Day 2 (after 3 days at 21° C.)
[13] = 0.3 mg/L, Day 3 (after 3 days at 21° C.)
[14] = 0.03 mg/L, Day 0 (after 3 days at 21° C.)
[15] = 1 mg/L, Day 0 (after 3 days at 21° C.)
[16] = 1 mg/L, Day 1 (after 3 days at 21° C.)
[17] = 1 mg/L, Day 2 (after 3 days at 21° C.)
[18] = 1 mg/L, Day 3 (after 3 days at 21° C.)

Cc1cc(C)nc(Nc2ccccc2)n1 [pyrimethanil, 4,6-Dimethyl-N-phenylpyrimidin-2-amine]
Gray Mold Severity (0-4) (Botrytis cinerea [1]; [3]): 2.0
Gray Mold Incidence (%) (Botrytis cinerea [1]; [4]): 100.0%
Gray Mold Severity (0-4) (Botrytis cinerea [1]; [4]): 2.0
Gray Mold Incidence (%) (Botrytis cinerea [1]; [5]): 100.0%
Gray Mold Severity (0-4) (Botrytis cinerea [1]; [5]): 3.4
Gray Mold Incidence (%) (Botrytis cinerea [1]; [6]): 94.4%
Gray Mold Severity (0-4) (Botrytis cinerea [1]; [6]): 0.5
Gray Mold Incidence (%) (Botrytis cinerea [1]; [7]): 98.1%
Gray Mold Severity (0-4) (Botrytis cinerea [1]; [7]): 0.7
Gray Mold Incidence (%) (Botrytis cinerea [1]; [8]): 98.1%
Gray Mold Severity (0-4) (Botrytis cinerea [1]; [8]): 1.1
Gray Mold Incidence (%) (Botrytis cinerea [1]; [9]): 98.1%
Gray Mold Severity (0-4) (Botrytis cinerea [1]; [9]): 1.8
Gray Mold Incidence (%) (Botrytis cinerea [1]; [10]): 16.7%
Gray Mold Severity (0-4) (Botrytis cinerea [1]; [10]): 0.1
Gray Mold Incidence (%) (Botrytis cinerea [1]; [11]): 94.4%
Gray Mold Severity (0-4) (Botrytis cinerea [1]; [11]): 0.5
Gray Mold Incidence (%) (Botrytis cinerea [1]; [12]): 94.4%
Gray Mold Severity (0-4) (Botrytis cinerea [1]; [12]): 0.8
Gray Mold Incidence (%) (Botrytis cinerea [1]; [13]): 100.0%
Gray Mold Severity (0-4) (Botrytis cinerea [1]; [13]): 1.3
Gray Mold Incidence (%) (Botrytis cinerea [2]; [14]): 79.2%
Gray Mold Severity (0-4) (Botrytis cinerea [2]; [14]): 0.8
Gray Mold Incidence (%) (Botrytis cinerea [2]; [3]): 87.5%
Gray Mold Severity (0-4) (Botrytis cinerea [2]; [3]): 1.3
Gray Mold Incidence (%) (Botrytis cinerea [2]; [4]): 91.7%
Gray Mold Severity (0-4) (Botrytis cinerea [2]; [4]): 1.7
Gray Mold Incidence (%) (Botrytis cinerea [2]; [5]): 100.0%
Gray Mold Severity (0-4) (Botrytis cinerea [2]; [5]): 2.1
Gray Mold Incidence (%) (Botrytis cinerea [2]; [6]): 70.8%
Gray Mold Severity (0-4) (Botrytis cinerea [2]; [6]): 0.6
Gray Mold Incidence (%) (Botrytis cinerea [2]; [7]): 79.2%
Gray Mold Severity (0-4) (Botrytis cinerea [2]; [7]): 0.8
Gray Mold Incidence (%) (Botrytis cinerea [2]; [8]): 83.3%
Gray Mold Severity (0-4) (Botrytis cinerea [2]; [8]): 1.2
Gray Mold Incidence (%) (Botrytis cinerea [2]; [9]): 100.0%
Gray Mold Severity (0-4) (Botrytis cinerea [2]; [9]): 1.7
Gray Mold Incidence (%) (Botrytis cinerea [2]; [10]): 66.7%
Gray Mold Severity (0-4) (Botrytis cinerea [2]; [10]): 0.4
Gray Mold Incidence (%) (Botrytis cinerea [2]; [11]): 75.0%
Gray Mold Severity (0-4) (Botrytis cinerea [2]; [11]): 0.5
Gray Mold Incidence (%) (Botrytis cinerea [2]; [12]): 73.8%
Gray Mold Severity (0-4) (Botrytis cinerea [2]; [12]): 0.8
Gray Mold Incidence (%) (Botrytis cinerea [2]; [13]): 95.8%
Gray Mold Severity (0-4) (Botrytis cinerea [2]; [13]): 1.1
Gray Mold Incidence (%) (Botrytis cinerea [2]; [15]): 66.7%
Gray Mold Severity (0-4) (Botrytis cinerea [2]; [15]): 0.3
Gray Mold Incidence (%) (Botrytis cinerea [2]; [16]): 70.8%
Gray Mold Severity (0-4) (Botrytis cinerea [2]; [16]): 0.4
Gray Mold Incidence (%) (Botrytis cinerea [2]; [17]): 69.6%
Gray Mold Severity (0-4) (Botrytis cinerea [2]; [17]): 0.6
Gray Mold Incidence (%) (Botrytis cinerea [2]; [18]): 91.7%
Gray Mold Severity (0-4) (Botrytis cinerea [2]; [18]): 1.0
